The values below come from EPA's ToxValDB 9.5 (doi:10.2903/j.efsa.2005.45r).

Structures are written as SMILES.

The subject of one data set is Aphidius rhopalosiphi. As to conditions: acute; duration: 7 days; mortality.
The test system of another data set is Chrysoperla externa. The settings on record: not reported; mortality.
The test system of a further data set is Colinus virginianus. The settings on record: oral.
The subject of the next data set is Tagia sp. As to conditions: acute; mortality.
The test system of a further data set is Apis mellifera. As to conditions: acute; duration: 48 hours; oral; unspecified; mortality.
For a further data set, the system named is Daphnia magna. As to conditions: chronic/long-term; duration: 21 days; reproduction.
The subject of the next data set is Rattus norvegicus. The settings on record: for NOAEL: chronic.
The subject of a further data set is Canidae. As to conditions: subchronic; duration: 90 days; oral; Dog Other; body weight.
Where [1] appears, read: short-term, oral, feed, mortality.

For orientation: NOAEL means the highest tested level that showed no adverse finding. Consider `CCS(=O)(=O)c1cccnc1S(=O)(=O)NC(=O)Nc1nc(OC)cc(OC)n1` [Rimsulfuron], for which the LEL is below 37.5 g/ha with Aphidius rhopalosiphi and 37500 g/ha in the data set on Chrysoperla externa. Besides, the LC50 in the data set on Colinus virginianus (acute, diet, mortality) was above 5620 mg/kg; in the data set with Tagia sp., above 1000 mg/kg; in the data set on Anas platyrhynchos (setting [1]), above 5620 mg/kg; in the data set on Oncorhynchus mykiss (acute, duration: 96 hours, mortality), above 390 µg/mL. In addition, the LD50 in the data set on Colinus virginianus (acute, mortality) is above 2250 mg/kg; in the data set with Apis mellifera it was above 100 µg/piece; with Anas platyrhynchos (acute, oral, unspecified, mortality) it was above 2250 mg/kg; with Anas platyrhynchos (setting [1]), above 1610 mg/kg-day; in the data set with Rattus norvegicus (acute, oral, mortality), above 5000 mg/kg. Moreover, the NOEC in the data set on Colinus virginianus (short-term, diet) came to 5620 mg/kg-day; with Anas platyrhynchos (short-term, oral, feed) it was 5620 mg/kg; with Daphnia magna, 1 mg/L; with Oncorhynchus mykiss (chronic/long-term, duration: 21 days, growth), 125 mg/L. Besides, the NOAEL is 1250 mg/kg in the data set with Anas platyrhynchos (reproductive); 3000 mg/kg-day in the data set on Rattus norvegicus; 11.8 mg/kg-day in the data set with Rattus norvegicus (duration: 2 years, oral, body weight); 9.63 mg/kg-day in the data set with Canidae.
